Test results from ChEMBL document CHEMBL1201862, “PubChem BioAssay data set” (2004).
Active and inactive are the calls of the source.

Assays:
[1] = target: Dual specificity protein phosphatase 3 (Homo sapiens, UniProt P51452); test: VHR1 inhibitor Ki determination, SAR follow-up, biochemical, colorimetric (AID 2004)
[2] = enhancers of respiration in Yfh1-depleted yeast, dose response, Friedreich's ataxia, plus single-dose screen (AID 1465); type: functional;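 further: yeast depleted of Yfh1p frataxin homolog grown on glycerol needing respiration; WST-1 tetrazolium dye reduction as measure of cellular dehydrogenase metabolic activity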
[3] = test system: HT-1080; test: cytotoxicity in HT1080 fibrosarcoma cells, cell-based, fluorescence readout (AID 620); type: functional; conditions: Homo sapiens
[4] = target: Luciferin 4-monooxygenase (Photinus pyralis, UniProt P08659); test: Counter Screen for Luciferase-based Assay Positives. [Related pubchem assays: 620, 618, 411 ]
Luciferin 4-monooxygenase, sequence (P08659 whole entry): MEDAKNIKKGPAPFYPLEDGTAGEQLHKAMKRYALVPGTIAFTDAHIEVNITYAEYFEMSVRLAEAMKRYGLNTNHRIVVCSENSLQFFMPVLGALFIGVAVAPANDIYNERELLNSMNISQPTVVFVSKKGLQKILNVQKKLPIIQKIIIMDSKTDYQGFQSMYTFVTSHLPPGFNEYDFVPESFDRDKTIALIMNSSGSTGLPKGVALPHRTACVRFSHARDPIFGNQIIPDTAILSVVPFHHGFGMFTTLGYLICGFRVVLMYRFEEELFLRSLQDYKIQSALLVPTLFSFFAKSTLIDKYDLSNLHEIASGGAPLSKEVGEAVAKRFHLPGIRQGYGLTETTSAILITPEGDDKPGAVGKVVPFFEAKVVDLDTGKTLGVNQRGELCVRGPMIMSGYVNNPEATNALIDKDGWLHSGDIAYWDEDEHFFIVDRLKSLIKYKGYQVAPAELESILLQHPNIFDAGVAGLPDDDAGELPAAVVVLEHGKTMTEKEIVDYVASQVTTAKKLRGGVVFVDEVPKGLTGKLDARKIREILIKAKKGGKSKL

[5] = test system: HEK293; test: inhibitors of LMP1-driven NF-kB reporter, dose response, cell-based, HEK293, luciferase, cherry-pick (AID 588343); type: functional; conditions: Homo sapiens
[6] = test system: Salmon testes DNA; test: DNA intercalators displacing acridine orange, dose response, artefact control for KSHV LANA DNA-binding inhibitor project, biochemical, fluorescence polarization, cherry-picked samples, set 2 (AID 504727); design: species or system Salmonidae
[7] = target: T1, RNA-binding protein pos-1 (Caenorhabditis elegans, UniProt G5EF15); test: inhibitors of POS-1/mex-3 RNA binding, dose response, biochemical, fluorescence polarization (AID 1964);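 further: purified POS-1 fused to maltose binding protein made in E. coli; potency of compounds blocking POS-1 binding to fluorescent RNA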
T1 sequence (G5EF15 whole entry): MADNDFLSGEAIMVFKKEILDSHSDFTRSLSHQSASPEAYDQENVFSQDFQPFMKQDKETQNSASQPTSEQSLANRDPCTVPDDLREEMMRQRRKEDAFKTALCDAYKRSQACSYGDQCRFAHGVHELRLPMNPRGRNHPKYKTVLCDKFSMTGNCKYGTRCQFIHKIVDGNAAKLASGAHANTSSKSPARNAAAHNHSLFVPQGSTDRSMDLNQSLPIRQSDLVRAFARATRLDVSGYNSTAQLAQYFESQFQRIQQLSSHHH

[8] = target: T2, Zinc finger protein mex-5 (Caenorhabditis elegans, UniProt Q9XUB2); test: MEX-5/TCR-2 RNA interaction inhibitors, dose response, biochemical, C. elegans, fluorescence polarization (AID 1960)
T2 sequence (Q9XUB2 whole entry): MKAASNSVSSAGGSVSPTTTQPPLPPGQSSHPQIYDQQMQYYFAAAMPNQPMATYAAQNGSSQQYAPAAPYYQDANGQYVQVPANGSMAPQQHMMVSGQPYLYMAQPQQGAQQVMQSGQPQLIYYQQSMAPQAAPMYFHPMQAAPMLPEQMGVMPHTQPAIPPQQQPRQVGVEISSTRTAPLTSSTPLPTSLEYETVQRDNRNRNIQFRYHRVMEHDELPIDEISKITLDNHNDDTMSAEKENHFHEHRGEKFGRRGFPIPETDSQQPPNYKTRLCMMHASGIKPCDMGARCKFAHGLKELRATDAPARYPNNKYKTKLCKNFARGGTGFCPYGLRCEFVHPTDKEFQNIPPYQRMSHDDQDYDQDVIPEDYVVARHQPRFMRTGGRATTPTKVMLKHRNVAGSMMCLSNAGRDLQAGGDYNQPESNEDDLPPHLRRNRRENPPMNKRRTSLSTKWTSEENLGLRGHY

[9] = cytotoxicity toward NIH3T3 fibroblasts, dose response, counter-screen, cell-based, ATP luminescence, mouse fibroblasts (AID 2010); type: functional;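 further: cells exposed to compound for about 90 hours before reading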
[10] = inhibitors of intracellular T. cruzi replication, confirmation, NIH3T3 host cells, beta-gal luminescence (AID 2044); type: functional, cell-based;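 further: intracellular parasites grown in NIH/3T3 mouse fibroblasts as host cells; luminescent beta-galactosidase reporter signal from transgenic T. cruzi replicating inside host cells; inhibitors lower the luminescence signal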
[11] = target: Neuropeptide Y receptor type 2 (Homo sapiens, UniProt P49146); test: NPY-Y2 antagonist potency, selectivity check, dose response, counter-screen for NPY-Y1 antagonist project, cell-based (AID 1278); type: functional
Neuropeptide Y receptor type 2, sequence (P49146 whole entry): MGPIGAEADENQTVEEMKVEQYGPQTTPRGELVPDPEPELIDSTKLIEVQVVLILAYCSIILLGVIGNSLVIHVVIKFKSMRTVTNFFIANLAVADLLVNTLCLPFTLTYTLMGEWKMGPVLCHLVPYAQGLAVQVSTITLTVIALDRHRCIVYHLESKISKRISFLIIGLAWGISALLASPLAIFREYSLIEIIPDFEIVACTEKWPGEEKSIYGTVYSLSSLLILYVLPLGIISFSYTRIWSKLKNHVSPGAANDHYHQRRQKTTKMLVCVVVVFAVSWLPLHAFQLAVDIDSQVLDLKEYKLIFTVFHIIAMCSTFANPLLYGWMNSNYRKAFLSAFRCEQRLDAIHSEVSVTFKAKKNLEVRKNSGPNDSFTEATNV

[12] = target: Neuropeptide Y receptor type 1 (Homo sapiens, UniProt P25929); test: NPY-Y1 receptor antagonist potency, dose response, cell-based (AID 1277); type: functional
Neuropeptide Y receptor type 1, sequence (P25929 whole entry): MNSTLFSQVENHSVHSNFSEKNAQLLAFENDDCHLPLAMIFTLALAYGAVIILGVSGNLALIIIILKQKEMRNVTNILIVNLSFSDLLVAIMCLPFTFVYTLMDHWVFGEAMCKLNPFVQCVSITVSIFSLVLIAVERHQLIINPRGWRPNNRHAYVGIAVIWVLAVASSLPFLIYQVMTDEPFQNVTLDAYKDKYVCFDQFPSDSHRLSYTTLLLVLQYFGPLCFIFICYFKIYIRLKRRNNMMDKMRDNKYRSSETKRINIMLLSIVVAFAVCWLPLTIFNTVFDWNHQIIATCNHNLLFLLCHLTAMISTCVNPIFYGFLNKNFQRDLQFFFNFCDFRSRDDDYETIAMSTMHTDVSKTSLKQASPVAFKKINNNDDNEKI

[13] = target: Melanin-concentrating hormone receptor 1 (Homo sapiens, UniProt Q99705); test: Fluorescence-based counterscreen for antagonists of the G-protein coupled receptor 7 (GPR7): cell-based high throughput dose response assay to identify antagonists of the melanin-concentrating hormone receptor 1 (MCHR1).; type: functional
Melanin-concentrating hormone receptor 1, sequence (Q99705 whole entry): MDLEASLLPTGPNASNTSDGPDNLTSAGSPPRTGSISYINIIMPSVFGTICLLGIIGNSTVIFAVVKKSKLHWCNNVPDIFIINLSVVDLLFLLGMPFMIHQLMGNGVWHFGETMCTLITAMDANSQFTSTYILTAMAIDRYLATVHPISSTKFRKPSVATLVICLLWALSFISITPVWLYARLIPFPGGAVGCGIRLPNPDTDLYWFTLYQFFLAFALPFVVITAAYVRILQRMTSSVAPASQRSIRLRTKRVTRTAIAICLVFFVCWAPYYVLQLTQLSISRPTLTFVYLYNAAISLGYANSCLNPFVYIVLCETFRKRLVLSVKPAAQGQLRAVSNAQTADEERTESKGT

[14] = test system: Vero; test: cytotoxicity of synthesized analogs in Vero 76, SAR follow-up, cytotoxicity control for West Nile virus antiviral project, Vero 76 cells (AID 2414); type: functional; conditions: Chlorocebus sabaeus
[15] = test system: Vero; test: cytotoxicity of synthesized analogs in Vero cells, SAR follow-up, cytotoxicity control for West Nile virus antiviral project, cell-based, set II (AID 2402); type: functional; conditions: Chlorocebus sabaeus
[16] = test system: Vero; test: Vero E6 cell cytotoxicity, SAR follow-up, cytotoxicity control for West Nile virus antiviral project, synthesized analogs (AID 2244); type: functional; conditions: Chlorocebus sabaeus
[17] = A Cell Based Assay for the Identification of Probe candidate Compounds with Anti- Venezuelan Equine Encephalitis virus. [Related pubchem assays: 2409, 2419, 1621, 2238, 2405, 2024, 2065, 2402, 2414, 1635, 1650, 2244 ]; type: functional

Dual specificity protein phosphatase 3, sequence (P51452 whole entry): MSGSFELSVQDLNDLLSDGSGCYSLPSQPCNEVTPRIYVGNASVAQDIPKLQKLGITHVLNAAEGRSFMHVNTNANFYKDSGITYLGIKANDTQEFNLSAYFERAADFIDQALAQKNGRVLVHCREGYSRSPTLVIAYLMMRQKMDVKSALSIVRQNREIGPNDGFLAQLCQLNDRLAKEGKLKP

**Q.** Which Ki [1] does the source give for `CC(C)C1SC(N/N=C/c2ccc(O)cc2)=NC1=O` (configuration not stated) here?
**A.** Its Ki is 36.1 µM (inactive).

**Q.** Which EC50 [2] does the source give for `CCOc1ccc2nc(NN=C3C(=O)NC(=O)NC3=O)sc2c1` here?
**A.** The EC50 was > 100 µM (active).

**Q.** For `Cc1ccc(C(=O)Nc2cccc(C(=O)O)c2)cc1S(=O)(=O)N1CCCCC1`, which EC50 [3] is on record?
**A.** The EC50 was > 50 µM (not active).

**Q.** What about the EC50 [4] of the same molecule?
**A.** Its EC50 is < 0.2 µM (active).

**Q.** What about the AC50 [5] of the same molecule?
**A.** The AC50 was 3.76 µM (active).

**Q.** For `COc1cccc(OCCCn2cc(/C=C3/C(=N)N4C=C(C)SC4=NC3=O)c3ccccc32)c1`, which AC50 [6] is on record?
**A.** The AC50 was 65.9 µM (active).

**Q.** And the EC50 [7]?
**A.** Its EC50 is 108 µM (active).

**Q.** And the EC50 [8]?
**A.** The EC50 was 109 µM (active).

**Q.** What about the EC50 [9] of the same molecule?
**A.** Its EC50 is > 60 µM (not active).

**Q.** What about the EC50 [10] of the same molecule?
**A.** Its EC50 is 1.34 µM (active).

**Q.** For `COc1ccc(C2N(c3ccc(Cl)cc3)N=C(C(C)=O)N(C)N2C(C)=O)cc1` (configuration not stated), which IC50 [11] is on record?
**A.** Its IC50 is > 35 µM (not active).

**Q.** And the IC50 [12]?
**A.** Its IC50 is > 35 µM (not active).

**Q.** With `Cc1ccc(C2C3=C(NCCN=C3c3ccccc3)C(=O)N2c2ccccc2)cc1` (configuration not stated) as the molecule, how does the IC50 [13] read?
**A.** Its IC50 is > 14.6 µM (not active).

**Q.** Which results are given for `COc1cccc(NC(=O)CSc2nc3ccccc3c(=O)n2-c2ccc(F)cc2)c1`?
**A.** CC50 [14]: > 66.6 µM (active); CC50 [15]: > 100 µM (active); CC50 [16]: > 40 µM (active); IC50 [17]: 64.2 µM (active)
